# Results from PMC4222822, “Discovery and Characterization of a Potent and Selective Inhibitor of Aedes aegypti Inward Rectifier Potassium Channels” (PLoS ONE, 2014).
# Like-named read-outs stand apart in the source and are kept apart here.
# What was measured:
# [1] = target: T1, Kir6.2/SUR1 (Homo sapiens, UniProt Q14654); experiment: Tl+ flux selectivity assay, Kir6.2/SUR1; assay type: cell-based; details: Kir6.2/SUR1, diazoxide 250 µM; n = 2 independent experiments in triplicate; read-out: Inhibition of Tl+ flux (IC50)
# T1 construct: expressed in transfected cells
# T1 sequence (Q14654 whole entry): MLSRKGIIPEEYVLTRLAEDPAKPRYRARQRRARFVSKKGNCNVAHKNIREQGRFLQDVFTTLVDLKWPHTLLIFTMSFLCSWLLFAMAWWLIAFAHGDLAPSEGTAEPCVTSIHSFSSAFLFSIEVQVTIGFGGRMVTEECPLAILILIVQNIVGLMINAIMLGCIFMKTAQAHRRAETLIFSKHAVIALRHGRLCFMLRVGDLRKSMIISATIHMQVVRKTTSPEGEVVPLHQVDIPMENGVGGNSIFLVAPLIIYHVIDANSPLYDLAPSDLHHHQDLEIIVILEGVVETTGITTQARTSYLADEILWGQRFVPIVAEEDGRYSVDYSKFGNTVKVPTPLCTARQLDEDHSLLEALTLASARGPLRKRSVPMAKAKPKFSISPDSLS
# T1 sequence (Q09428 whole entry partner): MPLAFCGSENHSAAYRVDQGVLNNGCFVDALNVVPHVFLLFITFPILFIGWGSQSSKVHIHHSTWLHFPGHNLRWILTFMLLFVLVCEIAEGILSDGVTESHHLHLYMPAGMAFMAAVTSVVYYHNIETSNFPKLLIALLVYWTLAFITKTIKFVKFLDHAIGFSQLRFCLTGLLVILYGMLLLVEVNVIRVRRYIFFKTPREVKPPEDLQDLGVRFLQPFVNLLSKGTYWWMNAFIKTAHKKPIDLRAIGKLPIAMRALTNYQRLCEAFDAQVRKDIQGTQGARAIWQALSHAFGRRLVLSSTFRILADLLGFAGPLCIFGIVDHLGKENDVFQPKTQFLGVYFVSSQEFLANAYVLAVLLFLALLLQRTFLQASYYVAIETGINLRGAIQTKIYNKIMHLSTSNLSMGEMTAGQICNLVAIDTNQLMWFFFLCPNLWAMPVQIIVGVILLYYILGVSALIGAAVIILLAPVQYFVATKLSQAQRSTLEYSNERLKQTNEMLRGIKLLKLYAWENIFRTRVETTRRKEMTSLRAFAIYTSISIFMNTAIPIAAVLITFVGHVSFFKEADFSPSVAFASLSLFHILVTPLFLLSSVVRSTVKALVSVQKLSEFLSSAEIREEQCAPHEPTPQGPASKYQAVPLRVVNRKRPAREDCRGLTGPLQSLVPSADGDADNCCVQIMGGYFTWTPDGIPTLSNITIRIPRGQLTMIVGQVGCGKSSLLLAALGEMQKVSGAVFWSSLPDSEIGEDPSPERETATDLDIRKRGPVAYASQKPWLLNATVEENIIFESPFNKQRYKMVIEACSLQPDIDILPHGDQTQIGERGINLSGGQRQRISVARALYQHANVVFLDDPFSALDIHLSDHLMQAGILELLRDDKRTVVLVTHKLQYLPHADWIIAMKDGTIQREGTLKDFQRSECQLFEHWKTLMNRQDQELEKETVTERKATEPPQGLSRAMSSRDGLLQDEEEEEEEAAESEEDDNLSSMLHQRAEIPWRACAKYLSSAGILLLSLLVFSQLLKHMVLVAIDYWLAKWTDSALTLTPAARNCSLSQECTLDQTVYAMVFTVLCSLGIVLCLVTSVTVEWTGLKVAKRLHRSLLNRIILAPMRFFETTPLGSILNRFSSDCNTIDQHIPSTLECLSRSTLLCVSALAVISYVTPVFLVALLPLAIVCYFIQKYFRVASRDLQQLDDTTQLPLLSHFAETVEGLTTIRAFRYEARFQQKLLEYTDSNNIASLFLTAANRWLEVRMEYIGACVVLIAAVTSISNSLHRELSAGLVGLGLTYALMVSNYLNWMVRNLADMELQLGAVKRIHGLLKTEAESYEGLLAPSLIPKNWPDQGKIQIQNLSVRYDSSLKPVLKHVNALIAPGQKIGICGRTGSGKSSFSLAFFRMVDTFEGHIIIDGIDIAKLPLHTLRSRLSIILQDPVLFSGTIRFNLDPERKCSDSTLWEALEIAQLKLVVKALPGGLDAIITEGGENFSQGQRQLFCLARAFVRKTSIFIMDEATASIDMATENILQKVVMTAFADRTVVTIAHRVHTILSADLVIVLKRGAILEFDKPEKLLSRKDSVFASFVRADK
# Method: [Worded in the source for another target; used here, by the source, with some conditions changed.] Tl^+ flux assays were performed essentially as described previously, [18], [19]. Briefly, stably transfected T-Rex-HEK-293 cells expressing AeKir1 channels were cultured overnight in 384-well plates (20,000 cells/20 µL/well black-walled, clear-bottomed BD PureCoat amine-coated plates (BD, Bedford, MA) with a plating media containing DMEM, 10% dialyzed FBS and 1 µg/mL tetracycline. The next day, the cell culture medium was replaced with a dye-loading solution containing assay buffer (Hanks Balanced Salt Solution with 20 mM HEPES, pH 7.3), 0.01% (w/v) Pluronic F-127 (Life Technologies, Carlsbad, CA), and 1.2 µM of the thallium-sensitive dye Thallos-AM (TEFlabs, Austin, TX). Following 1 hr incubation at room temperature, the dye-loading solution was washed from the plates and replaced with 20 µL/well of assay buffer. […] Tl^+ flux data were analyzed as previously described, [21], [22] using a combination of Excel (Microsoft Corp, Redmond, WA) with XLfit add-in (IDBS, Guildford, Surrey, UK) and OriginPro (OriginLab, Northampton, MA) software. […] The slope of the fluorescence increase beginning 5 s after Tl^+ addition and ending 15 s after Tl^+ addition was calculated.
# [2] = target: 5-HT2B receptor (Homo sapiens, UniProt P41595); experiment: Radioligand displacement assay, 5-HT2B receptor; assay type: binding, mammalian; details: 10 µM VU625
# Chain of 5-HT2B receptor (P41595 whole entry): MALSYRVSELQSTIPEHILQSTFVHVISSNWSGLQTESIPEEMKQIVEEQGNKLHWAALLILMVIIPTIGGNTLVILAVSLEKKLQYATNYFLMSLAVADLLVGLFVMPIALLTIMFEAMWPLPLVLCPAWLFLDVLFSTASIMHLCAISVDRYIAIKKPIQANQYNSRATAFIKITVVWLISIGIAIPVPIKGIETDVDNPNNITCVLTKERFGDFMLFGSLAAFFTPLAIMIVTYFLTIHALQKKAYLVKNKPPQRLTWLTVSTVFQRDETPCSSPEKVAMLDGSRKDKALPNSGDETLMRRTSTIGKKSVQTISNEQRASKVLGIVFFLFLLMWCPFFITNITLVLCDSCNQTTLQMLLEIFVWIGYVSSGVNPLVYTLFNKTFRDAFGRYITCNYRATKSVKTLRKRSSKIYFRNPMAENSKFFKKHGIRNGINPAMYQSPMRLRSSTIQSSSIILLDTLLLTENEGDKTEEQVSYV
# [3] = target: AeKir1 (Aedes aegypti, UniProt L0EQS9); experiment: Tl+ flux assay in T-REx-HEK293-AeKir1 cells; assay type: cell-based
# Chain of AeKir1 (L0EQS9 entry or part of it): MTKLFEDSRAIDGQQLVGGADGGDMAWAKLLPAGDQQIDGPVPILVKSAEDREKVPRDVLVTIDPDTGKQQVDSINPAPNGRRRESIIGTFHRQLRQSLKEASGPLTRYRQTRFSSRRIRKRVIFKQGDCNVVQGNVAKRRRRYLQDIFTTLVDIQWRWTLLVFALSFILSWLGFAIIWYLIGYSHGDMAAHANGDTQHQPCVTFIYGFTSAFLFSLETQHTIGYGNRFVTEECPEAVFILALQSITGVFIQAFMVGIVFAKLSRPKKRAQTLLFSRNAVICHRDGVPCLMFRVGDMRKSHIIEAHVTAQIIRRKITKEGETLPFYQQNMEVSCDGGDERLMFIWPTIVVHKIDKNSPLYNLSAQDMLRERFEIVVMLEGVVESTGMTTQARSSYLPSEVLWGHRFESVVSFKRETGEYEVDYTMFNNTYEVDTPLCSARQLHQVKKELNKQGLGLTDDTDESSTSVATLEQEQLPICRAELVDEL
# Method: Tl^+ flux assays were performed essentially as described previously, [18], [19]. Briefly, stably transfected T-Rex-HEK-293 cells expressing AeKir1 channels were cultured overnight in 384-well plates (20,000 cells/20 µL/well black-walled, clear-bottomed BD PureCoat amine-coated plates (BD, Bedford, MA) with a plating media containing DMEM, 10% dialyzed FBS and 1 µg/mL tetracycline. The next day, the cell culture medium was replaced with a dye-loading solution containing assay buffer (Hanks Balanced Salt Solution with 20 mM HEPES, pH 7.3), 0.01% (w/v) Pluronic F-127 (Life Technologies, Carlsbad, CA), and 1.2 µM of the thallium-sensitive dye Thallos-AM (TEFlabs, Austin, TX). Following 1 hr incubation at room temperature, the dye-loading solution was washed from the plates and replaced with 20 µL/well of assay buffer. The plates were transferred to a Hamamatsu Functional Drug Screening System 6000 (FDSS6000; Hamamatsu, Hamamatsu (or Bridgewater, NJ), Japan) where 20 µL/well of test compounds in assay buffer (as prepared below) were added and allowed to incubate with the cells for 20 min. After the incubation period, a baseline recording was collected at 1 Hz for 10 s (excitation 470±20 nm, emission 540±30 nm) followed by a Tl^+ stimulus buffer addition (10 µL/well) and data collection for an additional 4 min. The Tl^+ stimulus buffer contains in (mM) 125 NaHCO3, 1.8 CaSO4, 1 MgSO4, 5 glucose, 12 Tl2SO4, 10 HEPES, pH 7.4. For Tl^+ flux assays on the mammalian channels Kir2.x, Kir4.1 and Kir6.2/SUR1 expressing cells, the Tl^+ stimulus buffer contained 1.8 mM Tl2SO4. Also, Tl^+ flux assays on Kir3.1/3.2/mGlu8 expressing cell, required addition of an EC80 concentration of glutamate (Sigma-Aldrich, St. Louis, MO) with the Tl^+ stimulus buffer. The test compounds were transferred to daughter polypropylene 384-well plates (Greiner Bio-One, Monroe, NC) using an Echo555 liquid handler (Labcyte, Sunnyvale, CA), and then diluted into assay buffer to generate a 2X stock in 0.6% DMSO (0.3% final). For Tl^+ flux assays on Kir6.2/SUR1 expressing cells, test compounds were diluted in assay buffer containing diazoxide (250 µM final) to induce channel activation. Concentration-response curves (CRCs) were generated by screening compounds at 3-fold dilution series in 4-point (1 µM–30 µM) or 11-point (1 nM–30 µM) CRCs. Tl^+ flux data were analyzed as previously described, [21], [22] using a combination of Excel (Microsoft Corp, Redmond, WA) with XLfit add-in (IDBS, Guildford, Surrey, UK) and OriginPro (OriginLab, Northampton, MA) software. Raw data were opened in Excel and each data point in a given trace was divided by the first data point from that trace (static ratio) followed by subtraction of data points from control traces generated in the presence of vehicle controls. The slope of the fluorescence increase beginning 5 s after Tl^+ addition and ending 15 s after Tl^+ addition was calculated. To compare the effect of DMSO on AeKir1-mediated Tl^+ flux, a one-way ANOVA was performed with a Tukey's multiple comparison test. Prism software (GraphPad Software) was used to generate CRC from Tl^+ flux. Half-inhibition concentration (IC50) values were calculated from fits using a four parameter logistic equation.
smiles,measurement,setting,value
"CCC(=O)N1c2ccc(S(=O)(=O)Nc3cccc(OC)c3)cc2CC1C (stereo not shown) [VU625, N-(3-methoxyphenyl)-2-methyl-1-propionylindoline-5-sulfonamide]",IC50,[1],> 30000 nM
same,radioligand displacement,[2],69%
same,IC50,"[3]; 11-point CRCs, 95% CI: 0.25–0.39 µM, read-out: IC50 (AeKir1, Tl+ flux)",320 nM
same,IC50,"[3]; Fig. 2C, 95% CI: 254.4–390.2 nM, n = 4 independent experiments in triplicate, read-out: IC50 (AeKir1, Tl+ flux)",315 nM
same,IC50,"[3]; Table 2, southern amide SAR, 11-point CRCs on AeKir1 in Tl+ flux, triplicate on two separate days, read-out: IC50±SEM",360 ± 20 nM
same,IC50,"[3]; Table S3, left-hand sulfonamide SAR, 11-point CRCs on AeKir1 in Tl+ flux, triplicate on two separate days, read-out: IC50",856 nM
same,Hill coefficient (nH),"[3]; Tl+ flux CRC, 95% CI: 0.8–1.2",0.98
